Measurements published in EP2879647B1, “SKIN CARE” (University of Pretoria, priority 2012, dated 2014).
≈ marks a conversion by molar mass, not a printed value. Where “and” joins values, the source holds several entries; their conditions need not be identical. Equal entries are not always repeated. *1 amine or outer side, *2 acyl side, *3 side chain or, on linkers, in order; H or OH if unused. Where a SMILES comes first, the peptide text is derived from it. Bridges are numbered along the chain shown (N, C = ends). Roman numbers before positions name the chains, in order. [ ]: non-standard residue; d: D form. Actinocin(9to1) = Cc1c2oc3c(C)ccc(C(=O)[*:1])c3nc-2c(C(=O)[*:2])c(N)c1=O; NMeV = CN[C@H](C(=O)O)C(C)C; Sar = CNCC(=O)O

Key:
[1] = test system: Propionibacterium acnes (ATCC 11827); assay: Antibacterial bioassay, MIC by broth microdilution (INT colour change); conditions: Cutibacterium acnes, ATCC11827, 72 h, read-out: Antibacterial MIC
Protocol: Briefly, the bacteria was cultured from a Kwik-Stick on nutrient agar and incubated at 37°C for 72 h under anaerobic conditions before the assay. The 72 h culture of the bacteria was dissolved in nutrient broth and the suspension was adjusted to 0.5 McFarland standard turbidity. […] In a sterile 96-well plate, 100 µl of samples from the stock solution consisting of the plant extract/ isolated compounds (2 mg/ml in 10% dimethyl sulphoxide (DMSO)) and the positive control tetracycline (0.2 mg/ml) was diluted with broth. […] The bacterial suspension (100 µl) was added to the wells. […] The plates were incubated at 37°C for 72 h in an anaerobic environment.

[2] = DPPH antioxidant (radical scavenging) assay; format: biochemical; conditions: for Antioxidant IC50 / IC50: DPPH; for Antioxidant IC50: 550 nm, samples 100 to 0.7 µg/ml; for IC50: value in brackets
Protocol: Following the procedures as described by DuToit et al. (2001) for each sample, a dilution series (8 dilutions) was prepared in a 96 well plate by adding distilled water as a dilution medium. […] Each concentration was tested in triplicates. Vitamin C was used as a positive control. The radical scavenging capacities of the samples were determined using a BIOTEK plate reader to measure the disappearance of DPPH at 550 nm. The radical scavenging activity was measured in terms of the amount of antioxidants necessary to decrease the initial DPPH absorbance by 50% (IC50). The IC50 value of each sample was determined graphically by plotting the absorbance of DPPH as a function of the sample concentration in μg/ml. The IC50 is the amount of antioxidant necessary to decrease the initial DPPH absorbance by 50%. The results were calculated using the following equation: AA% = {Absblank(Abssample-Abscontrol)/Absblank} × 100 [formula] The mg vitamin C equivalents/g dry weight of potent samples was calculated as follows: […]) = (IC50(vitc)/IC50(sample)) × 1000. [formula]

[3] = In vitro cytotoxicity assay (XTT); conditions: human; for CC50: u937 cells
Protocol: (§1) The mouse melanocytes (B16-F10) cells were cultured in a complete Minimum Essential Eagle's Medium (MEM) whereas the human U937 cells were cultured in Roswell Park Memorial Institute (RPMI) containing 10% fetal bovine serum (FBS) and 1% gentamycin. B16-F10 (10^5 cells per well) and U937 (10^6 cells per well) were seeded into a 96-well plate. […] The plate was then incubated at 37°C in 5% CO2, and a humidified atmosphere after which the toxicity effects of the extracts was assayed using the XTT (sodium 3'-[1-(phenyl amino-carbonyl)-3,4-tetrazolium]-bis-[4-methoxy-6-nitrobenzene sulfonic acid hydrate) cytotoxicity assay. […] By referring to the control (medium with DMSO), the cell survival rate was assessed.

[4] = constituent of Viburnum jucundum (Rios et al., 2001); cited from earlier work
[5] = In vitro cytotoxicity assay (XTT); conditions: mouse; for CC50: b16-f10 cells
Protocol: as §1

[6] = test system: skin cancer cells (SL-MEL-2); conditions: Sung et al., 1999; cited from earlier work
[7] = test system: CNS cancer cells (XF498); conditions: Sung et al., 1999; cited from earlier work
[8] = test system: colorectal cancer cells (HCT15); conditions: Sung et al., 1999; cited from earlier work
[9] = test system: IL-8; assay: Cytokine production (ELISA) in U937 cells co-cultured with heat-killed P. acnes; format: cell-based, human; conditions: U937 cells infected with P. acnes (Fig 3b)
[10] = test system: TNF a; assay: as above; format: cell-based, human; conditions: 100 and 50 µg/ml, U937 cells infected with P. acnes (Fig 3b)
Protocol: The effect of plant extract on cytokine production (IL 8 and TNF a) was evaluated using enzyme immunoassay kits (ELIZA) using method as described previously (Tsai et al., 2010). Briefly, the log phase culture of P.acnes was harvested, washed three times with phosphate buffer saline (PBS), and incubated at 80°C for 30 min to kill the bacteria. The heat-killed bacteria were stored at 4°C until use. The human U937 cells were seeded at 10^6 cells per well in a 24-well plate and was stimulated with heat killed P. acnes (wet weight 100 µg/ml) alone and in combination with the different test samples. Pentoxifylline was used as a control. After 18 h incubation, the cell-free supernatants were collected and the concentrations of IL 8 and TNF a were analysed. Cytokine standards were serially diluted to facilitate the construction of calibration curves necessary for determining protein concentration of test samples.

[11] = test system: U937 human macrophage; assay: In vitro cytotoxicity assay (XTT); conditions: XTT
Protocol: as §1

[12] = test system: P. acnes; assay: Transmission electron microscopy (TEM) of treated bacteria; conditions: 50 µg/ml, 72 h
Protocol: The bacterial suspension (5 ml) was mixed with plant extract and pure compound to a final concentration of 300 and 100 µg/ml for plant extract and 50 µg/ml for pure compound. […] The pathogen was treated for 72 h; the control group consisted of only bacterial suspension in nutrient broth. […] Samples were washed with phosphate buffer and postfixed in both 1% osmium tetraoxide and uranyl acetate. The cells were dehydrated in ethanol and embedded in quetol resin. Thin sections were prepared with a microtome and micrographs were taken using a JEOL JEM-2100F field emission electron microscope.

[13] = test system: MAC tumour cells; conditions: Woldemariam et al. (1992); cited from earlier work

## CC(=O)OC/C=C(\C)CCC[C@H](C)CCC[C@H](C)CCCC(C)C [Compound C1, phytol acetate]
[1]
  MIC: > 500 µg/mL
[2]
  Antioxidant IC50: >100 µg/mL

## CCCCCCCCCCCCCCCCCCCCCCCCCCCCCCO [Compound C2, triacontanol]
[1]
  MIC: > 500 µg/mL
[3]
  EC50: > 100 µg/mL
  viability at 100 µg/ml: 100%
[2]
  Antioxidant IC50: >100 µg/mL
[4]
  toxicity: non toxic
[5]
  EC50: > 100 µg/mL
  viability at 100 µg/ml: 100%

## C/C(=C\CO)CCC[C@H](C)CCC[C@H](C)CCCC(C)C [Compound C3, phytol]
[6]
  toxicity against skin cancer cells (SL-MEL-2): mild toxicity
[1]
  MIC: > 500 µg/mL
[3]
  EC50: > 100 µg/mL
  viability at 100 µg/ml: 100%
[2]
  Antioxidant IC50: >100 µg/mL
[7]
  toxicity against CNS cancer cells (XF498): mild toxicity
[8]
  toxicity against colorectal cancer cells (HCT15): mild toxicity
[5]
  EC50: > 100 µg/mL
  viability at 100 µg/ml: 100%

## CN(C)[C@@H]1C(O)=C(C(N)=O)C(=O)[C@@]2(O)C(O)=C3C(=O)c4c(O)cccc4[C@@](C)(O)[C@H]3C[C@@H]12 [tetracycline, reference compound]
[1]
  MIC: 3.1 µg/mL and 7 µM

## Cc1c2oc3c(C)ccc(C(=O)N[C@@H]4C(=O)N[C@H](C(C)C)C(=O)N5CCC[C@H]5C(=O)N(C)CC(=O)N(C)[C@@H](C(C)C)C(=O)O[C@@H]4C)c3nc-2c(C(=O)N[C@@H]2C(=O)N[C@H](C(C)C)C(=O)N3CCC[C@H]3C(=O)N(C)CC(=O)N(C)[C@@H](C(C)C)C(=O)O[C@@H]2C)c(N)c1=O [actinomycin D, reference compound] (I: T[dV]P[Sar][NMeV] / II: T[dV]P[Sar][NMeV]; ester I:1-I:C, II:1-II:C; linker I:N-II:N via Actinocin(9to1))
[3]
  CC50: 0.0045 µg/mL (≈ 0.00358 µM)
[5]
  CC50: 0.0045 µg/mL (≈ 0.00358 µM)

## O=C1O[C@H]([C@@H](O)CO)C(O)=C1O [vitamin C, reference compound]
[2]
  Antioxidant IC50: 1.98 µg/mL
  IC50: 11.3 µM

## CC(=O)CCCCn1c(=O)c2c(ncn2C)n(C)c1=O [pentoxifylline]
[9]
  IL-8 concentration: no change
[10]
  inhibition of TNF a: Significant inhibition

## COc1c(C)c(O)c(Cc2c(O)c(C)c(OC)c(C(=O)C(C)C)c2O)c(O)c1C(=O)C(C)C [Compound C4, alpha kosin]
[1]
  MIC: 1.9 µg/mL and 2.1 µM
[11]
  Cytotoxicity EC50 U937 human macrophage: <3.12 µg/mL
[3]
  CC50: < 3.12 µg/mL
[2]; (IC50 vit C / IC50 sample) x 1000
  mg vitamin C equivalents/g dry weight: 392 mg vitamin C equivalents/g dry weight
[2]
  Antioxidant IC50: 5.05 µg/mL
  IC50: 10.5 µM
[12]
  cell injuries to P. acnes (TEM micrograph): significant damage to P. acnes
[13]
  cytotoxic effects against MAC tumour cells: strong cytotoxic effects
[5]
  CC50: < 3.12 µg/mL
